Experiments:
[1] = tested on: guinea pig gall bladder contracted with CCK-8; assay: Anti-CCK activity on guinea pig gall bladders in vitro; format: biochemical; conditions: CCK-8 10 ng/ml, concentration antagonising 50% of contracting effect
Experimental: A longitudinal strip of guinea pig gall bladder is placed in a bath of Krebs for isolated organs at a temperature of 32° C. and oxygenated continuously with an oxygen-CO2 mixture (95-5 V/V).
The […] contractions are detected by means of a force transducer and recorded.
The gall bladder is contracted with the use of a CCK-8 solution at a concentration of 10 ng/ml; the antagonistic activity of the compounds of the invention towards the contracting effect of the CCK is determined with the use of different concentrations, the ED50 value, that is the concentration of the compound in mcg/ml capable of antagonising 50% of the contracting effect of the CCK, being determined.
The results obtained are set out in the following table which gives the compounds tested and the ED50 values which are calculated by the method of regression on a test of at least three experiments for each compound studied.

[2] = tested on: analgesic activity of morphine; assay: Tail Flick Test: increase in the analgesic effect of morphine; format: in vivo, rats; conditions: for percentage variation in the latency of the pain sensation, 10' / percentage variation in the latency of the pain sensation, 20' / percentage variation in the latency of the pain sensation, 30' / percentage variation in the latency of the pain sensation, 45' / percentage variation in the latency of the pain sensation, 60' / percentage variation in the latency of the pain sensation, 90' / M(10'-90') average percentage variation: compound 10 mg/kg i.p. + morphine 2 mg/kg (row Morphine: alone); for percentage variation in the latency of the pain sensation, 10' / percentage variation in the latency of the pain sensation, 20' / percentage variation in the latency of the pain sensation, 30' / percentage variation in the latency of the pain sensation, 45' / percentage variation in the latency of the pain sensation, 60' / percentage variation in the latency of the pain sensation, 90': ± S.E.; for M(10'-90') average percentage variation: mean 10'-90'; for Potency ratio relative to morphine alone: rat, in vivo
Experimental: Increase in the analgesic effect of analgesic-narcotic drugs in rats in the Tail Flick Test
The method is that described by Harris et al. (J. Pharmacol. Exp. Ther. 143 (1964) 141-148).
Male rats are used which have a weight of about 150-200 g and which have not been fasting. A point is chosen on the tail and this is irradiated by a heat source (75° C.) and the time (in seconds) for which the animal remains without moving its tail is measured.
A maximum period of time under the heat source of 8 seconds is chosen after which the animal is, in any case, removed in order to avoid tissue damage. The measurement is effected before (controls) and after treatment with the drugs.
. The percentage variation is calculated for each individual animal by the following formula: [formula] The measurements are carried out 10, 20, 30, 45, 60 and 90 minutes after treatment with the analgesics.
The results obtained are given in Table 1 which records the groups treated and the doses administered, the
average percentage variations (calculated on groups of five animals) in […]

Compound	Anti CCK-8 activity, ED50 [1]	percentage variation in the latency of the pain sensation, 10' [2] [%]	percentage variation in the latency of the pain sensation, 20' [2] [%]	percentage variation in the latency of the pain sensation, 30' [2] [%]	percentage variation in the latency of the pain sensation, 45' [2] [%]	percentage variation in the latency of the pain sensation, 60' [2] [%]	percentage variation in the latency of the pain sensation, 90' [2] [%]	M(10'-90') average percentage variation [2] [%]	Potency ratio relative to morphine alone [2]
CC(C)Cc1ccc(C(=O)N[C@@H](Cc2c[nH]c3ccccc23)C(=O)O)cc1 [Compound 24]	327.7 µg/mL	66.9 ± 14.8	61.9 ± 17.5	84.4 ± 11.6	69.1 ± 14.9	65.2 ± 11.4	32.7 ± 19.9	63.4	2.13
O=C(N[C@@H](Cc1c[nH]c2ccccc12)C(=O)O)c1ccc(Cl)c(Cl)c1 [Compound 17]	398.0 µg/mL	96.9 ± 4.1	100.0 ± 0.0	100.0 ± 0.0	50.3 ± 10.1	85.4 ± 11.5	29.6 ± 4.5	85.0	2.85
CCCCCc1ccc(C(=O)N[C@@H](Cc2c[nH]c3ccccc23)C(=O)O)cc1 [Compound 25]	103.8 µg/mL	32.9 ± 17.3	63.7 ± 19.1	97.5 ± 2.5	100.0 ± 0.0	100.0 ± 0.0	82.9 ± 17.1	79.5	2.67
CCc1ccc(COC(=O)N[C@@H](Cc2c[nH]c3ccccc23)C(=O)O)cc1 [Compound 9]	125.4 µg/mL	46.7 ± 14.7	62.2 ± 16.5	39.6 ± 15.7	86.9 ± 8.0	46.7 ± 20.4	40.8 ± 22.4	53.8	1.80
N#Cc1cccc(C(=O)N[C@@H](Cc2c[nH]c3ccccc23)C(=O)O)c1 [Compound 32]	IN (inactive up to 400 mcg/ml)	18.7 ± 6.7	60.7 ± 15.5	63.7 ± 16.3	63.7 ± 16.3	45.8 ± 16.1	22.8 ± 12.2	43.0	1.44
O=C(N[C@@H](Cc1c[nH]c2ccccc12)C(=O)O)OCc1cccc(Cl)c1 [Compound 5]	23.2 µg/mL	34.5 ± 13.3	53.0 ± 24.8	62.5 ± 16.6	50.5 ± 17.6	43.7 ± 10.1	52.2 ± 22.2	50.9	1.71
O=C(N[C@@H](Cc1c[nH]c2ccccc12)C(=O)O)c1cccc(Cl)c1 [Compound 16]	197.5 µg/mL	25.2 ± 21.8	39.5 ± 26.1	37.7 ± 22.9	33.1 ± 19.9	25.9 ± 18.1	9.7 ± 11.9	28.5	0.96
